In PMC12096666, “Synthesis, in vitro and in silico studies of a novel chrysin-ferrocene Schiff base with potent anticancer activity via G1 arrest, caspase-dependent apoptosis and inhibition of topoisomerase II” (Journal of Enzyme Inhibition and Medicinal Chemistry, 2025):
“And” between values parts separate entries of the source, which are not always exact repeats. Identical values can stand only once. One block for each compound: values may come before it.

Assays:
CDK2 = target: T1, CDK2 (Homo sapiens, UniProt P24941); assay: CDK2 kinase assay; type: biochemical; conditions: mean ± SD of three experiments
T1 construct: purchased BPS Bioscience
Method: (§1) CDK2 kinase assay was performed using the CDK2 kinase assay kit (BPS Bioscience, USA) as previously described. The EGFR kinase assay was performed in 96-well plates coated with PGT (poly l-glutamic acid l-tyrosine, Sigma Aldrich, USA) using the EGFR kinase assay kit (BPS Bioscience, USA) and was conducted as previously described. The VEGFR-2 kinase assay was carried out in 96-well streptavidin coated plate using recombinant human VEGFR-2/KDR ELISA kit as previously described. The tropomyosin receptor kinases (TRK) inhibition assay was performed using TrkA assay kit (BPS Bioscience, USA) as per the manufacturer’s instructions. Topoisomerase II assay was performed using the human topoisomerase II relaxation assay kit (Inspiralis, UK) which involved relaxing supercoiled pBR322 DNA substrate by the enzyme. The relaxation assay was conducted as per the manufacturer’s instructions and as previously reported.

EGFR = target: T2, EGFR (Homo sapiens, UniProt P00533); assay: EGFR kinase assay; type: biochemical; conditions: mean ± SD of three experiments
T2 construct: purchased BPS Bioscience
T2 sequence (P00533 25-1210): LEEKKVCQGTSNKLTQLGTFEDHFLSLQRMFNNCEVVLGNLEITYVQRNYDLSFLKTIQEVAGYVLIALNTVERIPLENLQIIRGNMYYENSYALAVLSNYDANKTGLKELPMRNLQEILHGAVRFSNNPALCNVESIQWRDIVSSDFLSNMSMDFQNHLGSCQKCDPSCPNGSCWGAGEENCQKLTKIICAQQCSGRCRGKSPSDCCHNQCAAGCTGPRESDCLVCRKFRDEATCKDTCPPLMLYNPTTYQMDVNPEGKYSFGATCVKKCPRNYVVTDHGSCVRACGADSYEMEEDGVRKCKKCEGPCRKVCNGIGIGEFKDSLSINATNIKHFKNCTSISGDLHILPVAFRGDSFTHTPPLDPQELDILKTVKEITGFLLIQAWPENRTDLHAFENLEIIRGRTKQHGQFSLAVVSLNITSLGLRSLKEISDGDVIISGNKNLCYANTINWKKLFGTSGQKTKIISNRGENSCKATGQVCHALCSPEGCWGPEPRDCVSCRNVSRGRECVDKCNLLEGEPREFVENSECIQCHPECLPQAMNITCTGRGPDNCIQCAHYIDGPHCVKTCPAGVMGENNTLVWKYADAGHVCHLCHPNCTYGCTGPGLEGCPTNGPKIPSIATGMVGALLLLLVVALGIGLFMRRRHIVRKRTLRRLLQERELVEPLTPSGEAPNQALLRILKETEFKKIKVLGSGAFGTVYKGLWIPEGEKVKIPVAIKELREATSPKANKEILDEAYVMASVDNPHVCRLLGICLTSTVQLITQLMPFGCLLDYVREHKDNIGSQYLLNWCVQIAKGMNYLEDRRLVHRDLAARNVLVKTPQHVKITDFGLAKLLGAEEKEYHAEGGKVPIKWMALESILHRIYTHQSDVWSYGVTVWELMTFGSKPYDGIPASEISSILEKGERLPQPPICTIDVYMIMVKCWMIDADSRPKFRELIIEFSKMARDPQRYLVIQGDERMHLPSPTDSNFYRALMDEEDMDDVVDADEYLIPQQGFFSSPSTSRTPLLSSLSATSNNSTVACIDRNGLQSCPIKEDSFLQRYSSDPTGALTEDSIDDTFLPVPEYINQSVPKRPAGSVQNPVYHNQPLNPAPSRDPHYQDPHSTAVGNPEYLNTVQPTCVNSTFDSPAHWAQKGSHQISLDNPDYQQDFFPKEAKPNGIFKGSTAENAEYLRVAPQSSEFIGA
Method: as §1

TrkA = target: T3, TrkA (Homo sapiens, UniProt P04629); assay: TrkA inhibition assay; type: biochemical; conditions: mean ± SD of three experiments
T3 construct: purchased BPS Bioscience
T3 sequence (P04629 33-796): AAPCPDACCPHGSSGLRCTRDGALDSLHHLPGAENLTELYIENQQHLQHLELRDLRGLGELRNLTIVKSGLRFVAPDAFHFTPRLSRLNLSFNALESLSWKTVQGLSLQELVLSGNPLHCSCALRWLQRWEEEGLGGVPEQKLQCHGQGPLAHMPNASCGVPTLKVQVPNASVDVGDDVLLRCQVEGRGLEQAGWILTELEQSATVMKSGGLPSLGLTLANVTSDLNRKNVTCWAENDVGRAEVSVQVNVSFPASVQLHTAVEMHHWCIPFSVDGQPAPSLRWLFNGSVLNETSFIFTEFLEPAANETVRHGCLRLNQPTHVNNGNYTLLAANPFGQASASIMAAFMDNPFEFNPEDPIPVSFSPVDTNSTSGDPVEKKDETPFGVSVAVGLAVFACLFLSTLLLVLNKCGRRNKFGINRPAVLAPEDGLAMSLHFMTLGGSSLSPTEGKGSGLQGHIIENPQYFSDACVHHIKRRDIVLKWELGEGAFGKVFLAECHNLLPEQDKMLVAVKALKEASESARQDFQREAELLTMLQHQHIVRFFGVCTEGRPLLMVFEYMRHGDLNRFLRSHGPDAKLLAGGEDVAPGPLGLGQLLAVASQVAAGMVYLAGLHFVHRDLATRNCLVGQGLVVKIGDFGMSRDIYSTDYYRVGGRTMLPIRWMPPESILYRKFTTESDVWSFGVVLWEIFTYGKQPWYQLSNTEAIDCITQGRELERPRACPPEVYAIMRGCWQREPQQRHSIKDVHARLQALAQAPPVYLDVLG
Method: as §1

VEGFR = target: T4, VEGFR (Homo sapiens, UniProt P35968); assay: VEGFR-2 kinase assay; type: biochemical; conditions: mean ± SD of three experiments
T4 construct: purchased
T4 sequence (P35968 20-1356): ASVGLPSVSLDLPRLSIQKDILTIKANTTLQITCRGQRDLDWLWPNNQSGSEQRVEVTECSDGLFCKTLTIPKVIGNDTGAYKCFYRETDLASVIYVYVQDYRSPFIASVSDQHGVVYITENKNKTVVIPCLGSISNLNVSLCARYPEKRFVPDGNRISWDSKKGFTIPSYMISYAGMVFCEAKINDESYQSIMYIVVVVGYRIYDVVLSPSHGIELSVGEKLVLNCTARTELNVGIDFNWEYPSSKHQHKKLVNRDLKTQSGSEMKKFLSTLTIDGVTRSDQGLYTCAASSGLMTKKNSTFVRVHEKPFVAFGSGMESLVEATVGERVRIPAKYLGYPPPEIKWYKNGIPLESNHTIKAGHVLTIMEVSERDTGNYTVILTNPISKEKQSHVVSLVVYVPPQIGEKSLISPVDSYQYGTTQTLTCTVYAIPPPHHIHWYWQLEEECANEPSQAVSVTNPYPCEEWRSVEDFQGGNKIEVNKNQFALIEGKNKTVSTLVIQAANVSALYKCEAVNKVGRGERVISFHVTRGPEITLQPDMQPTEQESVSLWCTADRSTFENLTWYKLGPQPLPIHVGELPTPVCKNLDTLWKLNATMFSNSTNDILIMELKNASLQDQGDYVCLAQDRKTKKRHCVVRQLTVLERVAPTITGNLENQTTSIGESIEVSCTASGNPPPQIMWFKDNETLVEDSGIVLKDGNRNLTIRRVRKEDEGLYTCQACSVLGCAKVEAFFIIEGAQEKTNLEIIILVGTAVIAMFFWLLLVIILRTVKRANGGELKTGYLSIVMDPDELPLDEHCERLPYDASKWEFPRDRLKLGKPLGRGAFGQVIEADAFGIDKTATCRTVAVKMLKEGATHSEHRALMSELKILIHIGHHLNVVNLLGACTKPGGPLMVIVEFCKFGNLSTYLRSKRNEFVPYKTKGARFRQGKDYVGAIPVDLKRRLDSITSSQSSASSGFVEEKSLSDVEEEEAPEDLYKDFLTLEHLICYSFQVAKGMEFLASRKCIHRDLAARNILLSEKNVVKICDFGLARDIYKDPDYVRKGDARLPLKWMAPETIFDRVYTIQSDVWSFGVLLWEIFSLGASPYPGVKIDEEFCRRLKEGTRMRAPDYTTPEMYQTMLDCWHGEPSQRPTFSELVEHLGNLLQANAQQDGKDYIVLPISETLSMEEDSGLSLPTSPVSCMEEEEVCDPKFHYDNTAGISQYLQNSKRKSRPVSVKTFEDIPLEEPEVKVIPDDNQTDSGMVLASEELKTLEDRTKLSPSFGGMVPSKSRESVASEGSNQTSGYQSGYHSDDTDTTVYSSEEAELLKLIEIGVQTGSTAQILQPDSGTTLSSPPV
Method: as §1

human topoisomerase II = assay: Human topoisomerase II relaxation assay (pBR322); type: biochemical; conditions: relaxation of supercoiled pBR322 DNA; mean ± SD of three experiments
Method: as §1
The potential inhibition of topoisomerase II by CFSB was evaluated using human topoisomerase II assay. This assay involves measuring the ability of topoisomerase II enzyme to relax supercoiled DNA (pBR322)[68].

tubulin = target: T5, tubulin (Sus scrofa, UniProt P02550+P02554); assay: Tubulin polymerisation assay; type: biochemical; conditions: fluorescence, tubulin from porcine brain; mean ± SD of three experiments
T5 construct: polymerisation of tubulin, isolated from porcine brain tissue; purchased Cytoskeleton, Inc; host or cells: porcine brain tissue
T5 sequence (P02554 whole entry): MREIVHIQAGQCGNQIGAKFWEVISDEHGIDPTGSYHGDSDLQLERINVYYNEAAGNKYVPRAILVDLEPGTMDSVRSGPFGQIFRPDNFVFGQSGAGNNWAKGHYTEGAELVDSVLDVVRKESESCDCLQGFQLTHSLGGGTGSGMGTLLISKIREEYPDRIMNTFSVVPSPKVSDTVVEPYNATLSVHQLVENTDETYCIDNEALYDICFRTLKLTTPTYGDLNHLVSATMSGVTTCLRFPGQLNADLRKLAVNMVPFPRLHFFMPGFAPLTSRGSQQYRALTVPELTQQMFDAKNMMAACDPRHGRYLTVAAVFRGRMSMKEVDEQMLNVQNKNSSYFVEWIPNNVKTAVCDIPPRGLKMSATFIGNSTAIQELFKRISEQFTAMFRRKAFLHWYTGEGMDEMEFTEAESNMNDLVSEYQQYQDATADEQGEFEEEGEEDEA
T5 sequence (P02550 whole entry): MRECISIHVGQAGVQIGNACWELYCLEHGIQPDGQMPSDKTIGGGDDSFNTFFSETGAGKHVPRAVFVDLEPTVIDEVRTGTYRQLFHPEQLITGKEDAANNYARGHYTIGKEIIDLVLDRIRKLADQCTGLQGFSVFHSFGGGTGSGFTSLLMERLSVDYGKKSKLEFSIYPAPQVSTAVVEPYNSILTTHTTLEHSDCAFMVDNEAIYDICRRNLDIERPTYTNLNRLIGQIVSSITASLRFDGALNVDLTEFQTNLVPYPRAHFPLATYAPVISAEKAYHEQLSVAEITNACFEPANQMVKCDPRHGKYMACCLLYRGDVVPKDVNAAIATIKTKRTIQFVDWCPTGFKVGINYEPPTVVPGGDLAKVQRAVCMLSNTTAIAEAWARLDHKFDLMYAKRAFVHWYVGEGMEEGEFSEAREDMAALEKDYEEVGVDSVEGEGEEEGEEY
Method: The assay was performed using the tubulin polymerisation assay kit (Cytoskeleton, Inc, USA) as per the manufacturer’s instructions and as previously reported. […] Polymerisation dose-response curves were obtained by measuring changes in fluorescence intensity at each compound concentration. Fluorescence was measured at an excitation of 360 nm and emission of 450 nm using a Tecan-spark reader.
A tubulin polymerisation assay was used in order to assess the potential of CFSB as a tubulin polymerisation inhibitor. The assay involved observing the polymerisation of tubulin, isolated from porcine brain tissue, in the presence of CFSB. Changes in polymerisation were monitored via changes in fluorescence intensity.

MDA-MB-231 = conditions: triple negative breast cancer cell line; values as low as; cited from earlier work
HCT116 cells = assay: MTT cell viability assay, HCT116; type: cell-based; conditions: Homo sapiens, HCT-116, 72 h, mean ± SD of three experiments
Method: (§2) Liver cancer (HepG2), colon cancer (HCT116), lung cancer (A549), breast cancer (MCF7) and normal lung (MRC5) cells were obtained from ATCC (Rockville, USA). Cells were cultured in RPMI-1640 enriched with 10% foetal calf serum and 50 µg/ml gentamycin. They were incubated at 37 °C in a humidified environment containing 5% CO2 and passaged 2–3 times/week.
(§3) The MTT assay was conducted as previously reported. Cell lines were seeded at 5x10^4 cells/well and incubated for 24 h. CFSB was added in twelve concentrations, alongside vehicle controls and vinblastine sulphate as a positive control. After 72 h of incubation, cell viability was assessed using the MTT assay. Media was replaced, followed by the addition of MTT solution. DMSO was later added and optical density was measured at 590 nm using a microplate reader (TECAN, USA). IC50 values were calculated using Graphpad Prism (San Diego, USA). The experiment was repeated three times.

HepG2 cells = assay: MTT cell viability assay, HepG2; type: cell-based; conditions: Homo sapiens, 72 h, mean ± SD of three experiments
Method: as §2, §3

A549 cells = assay: MTT cell viability assay, A549; type: cell-based; conditions: Homo sapiens, 72 h, mean ± SD of three experiments
Method: The MTT assay was conducted as previously reported[20]. Cell lines were seeded at 5x10^4 cells/well and incubated for 24 h. […] After 72 h of incubation, cell viability was assessed using the MTT assay. Media was replaced, followed by the addition of MTT solution. DMSO was later added and optical density was measured at 590 nm using a microplate reader (TECAN, USA). IC50 values were calculated using Graphpad Prism (San Diego, USA). The experiment was repeated three times.

MCF7 cells = assay: MTT cell viability assay, MCF7; type: cell-based; conditions: Homo sapiens, 72 h, mean ± SD of three experiments
Method: as §2, §3

Compound: Oc1cc(O)c2c(=N[C]34[CH]5[CH]6[CH]7[CH]3[Fe]6754389%10[CH]4[CH]3[CH]8[CH]9[CH]4%10)cc(-c3ccccc3)oc2c1 (stereo not drawn) [CFSB, cyclopenta-2,4-dien-1-yl(5-((5,7-dihydroxy-2-phenyl-4H-chromen-4-ylidene)amino)cyclopenta-2,4-dien-1-yl)iron]
IC50 (CDK2): > 100 µM | IC50 (EGFR): > 100 µM | IC50 (TrkA): > 100 µM | IC50 (VEGFR): > 100 µM | IC50 (human topoisomerase II): 20 µM and 20.1 µM | IC50 (tubulin): 76 µM and 76.4 µM

Compound: O=C(COc1cc(O)c2c(=O)cc(-c3ccccc3)oc2c1)N/N=C/c1ccc(O)cc1O [Chrysin-De-allyl-Pac-1]
IC50 (MDA-MB-231): ≥ 5.98 µM

IC50 (HCT116 cells): 3.16 ± 0.38 µM
Compound: COc1cccc2c1C(=O)c1c(O)c3c(c(O)c1C2=O)C[C@@](O)(C(=O)CO)C[C@@H]3O[C@H]1C[C@H](N)[C@H](O)[C@H](C)O1 [Doxorubicin]

IC50 (HepG2 cells): 0.89 ± 0.1 µM | IC50 (HCT116 cells): 1.75 ± 0.19 µM | IC50 (A549 cells): 4.15 ± 0.31 µM | IC50 (MCF7 cells): 2.27 ± 0.25 µM
Compound: CC[C@]1(O)C[C@@H]2CN(CCc3c([nH]c4ccccc34)[C@@](C(=O)OC)(c3cc4c(cc3OC)N(C)[C@H]3[C@@](O)(C(=O)OC)[C@H](OC(C)=O)[C@]5(CC)C=CCN6CC[C@]43[C@@H]65)C2)C1 [Vinblastine sulphate]
